From US6388109B1, “14,15-cyclopropano steroids of the 19-norandrostane series, method for the production thereof and pharmaceutical preparations containing said compounds” (Jenapharm GmbH & Co. KG, priority 1998, dated 2002)

How the values were obtained:
[1] = target: T1, progesterone receptor of the rabbit uterus (Oryctolagus cuniculus, UniProt P06186); test: binding to the progesterone receptor of the rabbit uterus (reference substance: progesterone)
T1 construct: progesterone receptor of the rabbit uterus; from tissue; host or cells: rabbit uterus
T1 sequence (P06186 1-930): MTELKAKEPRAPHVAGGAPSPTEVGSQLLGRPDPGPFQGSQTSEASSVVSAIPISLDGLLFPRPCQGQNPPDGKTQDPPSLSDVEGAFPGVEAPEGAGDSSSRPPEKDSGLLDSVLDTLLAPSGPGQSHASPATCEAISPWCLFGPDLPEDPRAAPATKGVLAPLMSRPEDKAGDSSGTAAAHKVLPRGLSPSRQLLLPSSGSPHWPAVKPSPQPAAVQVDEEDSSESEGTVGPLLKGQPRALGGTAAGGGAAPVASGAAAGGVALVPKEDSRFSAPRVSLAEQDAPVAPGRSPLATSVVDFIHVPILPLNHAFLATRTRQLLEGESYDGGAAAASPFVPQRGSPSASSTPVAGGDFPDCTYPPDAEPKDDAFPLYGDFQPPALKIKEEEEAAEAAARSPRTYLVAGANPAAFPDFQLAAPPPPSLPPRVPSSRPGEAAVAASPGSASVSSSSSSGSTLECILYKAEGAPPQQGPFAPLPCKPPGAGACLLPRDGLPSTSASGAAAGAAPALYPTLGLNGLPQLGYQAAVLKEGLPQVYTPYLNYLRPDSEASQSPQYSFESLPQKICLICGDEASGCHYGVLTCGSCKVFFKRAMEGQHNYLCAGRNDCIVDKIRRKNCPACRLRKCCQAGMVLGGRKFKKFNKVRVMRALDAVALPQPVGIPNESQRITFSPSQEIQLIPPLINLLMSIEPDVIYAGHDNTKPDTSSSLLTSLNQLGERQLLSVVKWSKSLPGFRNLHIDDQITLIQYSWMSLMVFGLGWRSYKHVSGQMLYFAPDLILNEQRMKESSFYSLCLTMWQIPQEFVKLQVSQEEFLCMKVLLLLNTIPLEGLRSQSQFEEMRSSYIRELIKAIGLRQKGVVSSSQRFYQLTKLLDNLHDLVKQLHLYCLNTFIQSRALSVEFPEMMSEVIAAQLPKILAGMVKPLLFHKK
Source text: Another example is the compound of general formula I—in which R1 and R2 in each case represent a hydrogen atom, R3 means an α-position chloromethyl group, R4 stands for a β-position hydroxy group, and the cyclopropane ring is in β-position—17α-chloromethyl-17β-hydroxy-14β,15β-methylenestr-4-en-3-one (Code J 1364), which binds with 710±80% to the progesterone receptor of the rabbit uterus (reference substance: progesterone).

[2] = test system: pregnancy maintenance (gestagenic action); test: pregnancy maintenance test in mice; format: in vivo
Source text: Another example is the compound of general formula I—in which R1 and R2 in each case represent a hydrogen atom, R3 represents an α-position hydrogen atom, R4 stands for a β-position hydroxy group, and the cyclopropane ring is in α-position—17β-hydroxy-14,α,15α-methylenestr-4-en-3-one (J 1129), which in the same test has an approximately 50-fold stronger gestagenic action in comparison to the reference substance norethisterone acetate.

[3] = target: T2, androgen receptor of the rat prostate (Rattus norvegicus, UniProt P15207); test: binding to the androgen receptor of the rat prostate (reference substance: R 1881)
T2 construct: androgen receptor of the rat prostate; from tissue; host or cells: rat prostate
T2 sequence (P15207 1-902): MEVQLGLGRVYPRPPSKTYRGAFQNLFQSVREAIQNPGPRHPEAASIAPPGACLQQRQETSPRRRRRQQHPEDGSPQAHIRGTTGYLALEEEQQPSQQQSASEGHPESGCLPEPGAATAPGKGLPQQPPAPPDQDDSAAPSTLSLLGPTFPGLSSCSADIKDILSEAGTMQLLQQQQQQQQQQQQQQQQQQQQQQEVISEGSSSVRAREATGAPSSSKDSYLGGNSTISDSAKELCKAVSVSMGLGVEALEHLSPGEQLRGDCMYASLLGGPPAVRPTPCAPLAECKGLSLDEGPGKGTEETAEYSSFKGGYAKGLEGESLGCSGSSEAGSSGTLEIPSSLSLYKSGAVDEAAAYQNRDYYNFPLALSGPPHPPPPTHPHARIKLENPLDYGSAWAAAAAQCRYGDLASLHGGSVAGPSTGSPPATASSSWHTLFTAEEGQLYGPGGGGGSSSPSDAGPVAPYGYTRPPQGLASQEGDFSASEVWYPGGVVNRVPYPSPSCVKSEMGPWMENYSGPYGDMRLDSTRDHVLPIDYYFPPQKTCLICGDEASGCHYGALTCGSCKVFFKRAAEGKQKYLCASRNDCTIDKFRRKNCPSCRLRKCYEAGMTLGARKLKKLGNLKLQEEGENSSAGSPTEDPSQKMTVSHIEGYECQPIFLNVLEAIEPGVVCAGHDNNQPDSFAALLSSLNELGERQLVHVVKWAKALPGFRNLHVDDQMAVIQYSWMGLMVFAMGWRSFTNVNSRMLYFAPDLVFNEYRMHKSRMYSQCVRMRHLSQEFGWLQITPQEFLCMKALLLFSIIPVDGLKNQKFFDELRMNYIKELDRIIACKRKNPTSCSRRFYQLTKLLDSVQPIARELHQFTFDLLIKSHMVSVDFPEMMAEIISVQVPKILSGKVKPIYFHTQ

Row | Compound | binding to the progesterone receptor [1] | effectiveness in the pregnancy maintenance test compared with norethisterone acetate ([2]; reference gestagen norethisterone acetate) | affinity to the androgen receptor (in words) ([3]; reference substance: R 1881) | gestagenic action in comparison to the reference substance norethisterone acetate ([2]; pregnancy maintenance test, stronger than norethisterone acetate) | binding to the androgen receptor ([3]; reference substance: 17β-hydroxy-17α-methyl-estra-4,9,11-trien-3-one (R 1881))
1 | COC[C@]1(O)C[C@H]2C[C@]23[C@@H]2CCC4=CC(=O)CC[C@@H]4[C@H]2CC[C@]13C [J 1222, 17β-Hydroxy-17α-(methoxymethyl)-14β,15β-methylenestr-4-en-3-one] | 52±4% | just as effective | virtually no affinity | – | –
2 | C[C@]12CC[C@H]3[C@@H](CCC4=CC(=O)CC[C@@H]43)[C@@]13C[C@H]3C[C@@H]2O [J 1129, 17β-Hydroxy-14α,15α-methylenestr-4-en-3-one] | 42±5% | – | – | approximately 50 fold | 59±7%
3 | CC12CCC3C4CCC(=O)C=C4CCC3C13CC3CC2(O)CCl (stereo not drawn) [J 1364, 17α-Chloromethyl-17β-hydroxy-14β,15β-methylenestr-4-en-3-one] | 710±80% | – | – | – | –
